25 compounds from patent publication US11001586B2, “Alkyl pyrrolopyrimidine analogs and methods of making and using same” (The University of North Carolina at Chapel Hill, priority 2016, dated 2021) can be followed below.

The target in one experiment is Mer tyrosine kinase (Homo sapiens (Human), UniProt Q12866). The experiment can be described thus: Evaluation of activity against Mer tyrosine kinase. The format is biochemical.
A further experiment addresses Tyro3 tyrosine kinase (Homo sapiens (Human), UniProt Q06418). In words: Evaluation of activity against Tyro3 tyrosine kinase. Format: biochemical.

Where only a bound is given, the exact number is not on record here.

Tyro3 tyrosine kinase, sequence (Q06418 41-890): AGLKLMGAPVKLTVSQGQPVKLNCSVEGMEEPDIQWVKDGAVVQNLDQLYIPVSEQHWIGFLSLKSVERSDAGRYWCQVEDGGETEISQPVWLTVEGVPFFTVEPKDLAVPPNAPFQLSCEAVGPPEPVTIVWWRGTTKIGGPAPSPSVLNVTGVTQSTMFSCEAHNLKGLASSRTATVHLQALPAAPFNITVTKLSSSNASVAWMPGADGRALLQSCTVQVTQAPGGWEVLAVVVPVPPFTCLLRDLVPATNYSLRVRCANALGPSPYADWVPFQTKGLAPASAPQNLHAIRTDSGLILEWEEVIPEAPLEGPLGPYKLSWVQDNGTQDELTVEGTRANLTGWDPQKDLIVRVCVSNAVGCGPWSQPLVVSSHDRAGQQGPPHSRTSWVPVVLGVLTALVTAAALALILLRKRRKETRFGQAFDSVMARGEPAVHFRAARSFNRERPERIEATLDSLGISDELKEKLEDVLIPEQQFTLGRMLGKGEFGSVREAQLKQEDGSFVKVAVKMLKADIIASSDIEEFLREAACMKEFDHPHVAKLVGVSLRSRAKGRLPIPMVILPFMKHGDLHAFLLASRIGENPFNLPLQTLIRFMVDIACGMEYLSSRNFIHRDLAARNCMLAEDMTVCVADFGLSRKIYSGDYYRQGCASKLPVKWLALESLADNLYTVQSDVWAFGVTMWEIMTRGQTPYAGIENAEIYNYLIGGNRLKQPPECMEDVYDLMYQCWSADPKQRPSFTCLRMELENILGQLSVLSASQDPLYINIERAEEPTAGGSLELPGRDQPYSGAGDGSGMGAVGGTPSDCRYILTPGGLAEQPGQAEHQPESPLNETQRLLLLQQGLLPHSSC
Mer tyrosine kinase, sequence (Q12866 21-999): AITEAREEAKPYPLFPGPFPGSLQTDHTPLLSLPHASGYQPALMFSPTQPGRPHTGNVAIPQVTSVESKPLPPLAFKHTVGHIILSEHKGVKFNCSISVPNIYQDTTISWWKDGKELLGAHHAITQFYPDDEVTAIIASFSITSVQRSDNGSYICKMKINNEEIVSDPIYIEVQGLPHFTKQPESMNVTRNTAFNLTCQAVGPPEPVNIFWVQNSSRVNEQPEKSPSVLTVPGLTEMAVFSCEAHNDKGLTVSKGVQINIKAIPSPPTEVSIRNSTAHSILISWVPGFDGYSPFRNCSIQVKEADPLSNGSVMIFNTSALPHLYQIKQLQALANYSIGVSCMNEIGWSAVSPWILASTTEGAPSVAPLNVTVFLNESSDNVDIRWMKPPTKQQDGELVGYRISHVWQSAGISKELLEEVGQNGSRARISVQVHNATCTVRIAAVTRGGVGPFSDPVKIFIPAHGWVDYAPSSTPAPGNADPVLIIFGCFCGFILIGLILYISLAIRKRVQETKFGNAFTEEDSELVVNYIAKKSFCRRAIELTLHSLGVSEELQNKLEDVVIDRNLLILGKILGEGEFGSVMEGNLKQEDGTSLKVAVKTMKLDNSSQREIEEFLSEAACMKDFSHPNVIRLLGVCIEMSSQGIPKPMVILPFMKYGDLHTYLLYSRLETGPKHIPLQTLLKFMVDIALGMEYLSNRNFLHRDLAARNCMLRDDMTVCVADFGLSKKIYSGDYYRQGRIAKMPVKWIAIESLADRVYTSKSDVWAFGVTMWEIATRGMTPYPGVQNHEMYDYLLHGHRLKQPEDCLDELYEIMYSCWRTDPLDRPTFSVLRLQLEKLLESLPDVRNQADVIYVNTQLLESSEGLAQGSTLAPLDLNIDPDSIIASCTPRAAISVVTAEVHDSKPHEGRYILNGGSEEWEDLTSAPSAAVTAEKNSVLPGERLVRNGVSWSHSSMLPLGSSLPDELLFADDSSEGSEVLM

The IC50 is the concentration that inhibits the measured activity by half. With `CCC[C@H](C)Nc1ncc2c(C3CCN(C(=O)c4cc(C)nc(C)c4)CC3)cn([C@H]3CC[C@H](O)CC3)c2n1` [compound 34, (2,6-dimethylpyridin-4-yl)(4-(7-((1R,4S)-4-hydroxycyclohexyl)-2-(((S)-pentan-2-yl)amino)-7H-pyrrolo[2,3-d]pyrimidin-5-yl)piperidin-1-yl)methanone], the half-maximal inhibitory concentration (IC50) was less than 10 nM at Mer tyrosine kinase and 10 to 100 nM on Tyro3 tyrosine kinase.
The matching figures for `CCC[C@H](C)Nc1ncc2c(C3CCN(C(=O)c4cc(F)cc(F)c4)CC3)cn([C@H]3CC[C@H](O)CC3)c2n1` [compound 81, (3,5-difluorophenyl)(4-(7-((1R,4S)-4-hydroxycyclohexyl)-2-(((S)-pentan-2-yl)amino)-7H-pyrrolo[2,3-d]pyrimidin-5-yl)piperidin-1-yl)methanone]: less than 10 nM and 100 to 1000 nM.
For `Cc1cc(C(=O)N2CCC(c3cn([C@H]4CC[C@H](O)CC4)c4nc(NCCC5CC5)ncc34)CC2)cc(C)n1` [compound 72, (4-(2-((2-cyclopropylethyl)amino)-7-((1R,4R)-4-hydroxycyclohexyl)-7H-pyrrolo[2,3-d]pyrimidin-5-yl)piperidin-1-yl)(2,6-dimethylpyridin-4-yl)methanone], the IC50 at Mer tyrosine kinase is less than 10 nM; against Tyro3 tyrosine kinase, 100 to 1000 nM.
`CCC[C@H](C)Nc1ncc2c(C3CCN(S(=O)(=O)C4CCN(C)CC4)CC3)cn([C@H]3CC[C@H](O)CC3)c2n1` [compound 1, (1S,4R)-4-(5-(1-((1-methylpiperidin-4-yl)sulfonyl)piperidin-4-yl)-2-(((S)-pentan-2-yl)amino)-7H-pyrrolo[2,3-d]pyrimidin-7-yl)cyclohexan-1-ol]: the results for the IC50 against Mer tyrosine kinase and on Tyro3 tyrosine kinase were less than 10 nM and 10 to 100 nM, respectively.
Take `CCC[C@H](C)Nc1ncc2c(C3CCN(C(=O)C4CCCN4)CC3)cn([C@H]3CC[C@H](O)CC3)c2n1` (stereo partly drawn) [compound 15, 7-((1R,4S)-4-hydroxycyclohexyl)-2-(((S)-pentan-2-yl)amino)-5-(1-prolylpiperidin-4-yl)-7H-pyrrolo[2,3-d]pyrimidine]: the IC50 was less than 10 nM on Mer tyrosine kinase and 10 to 100 nM at Tyro3 tyrosine kinase.
For `CCC[C@H](C)Nc1ncc2c(C3CCN(S(=O)(=O)CCOC)CC3)cn([C@H]3CC[C@H](O)CC3)c2n1` [compound 4, (1S,4R)-4-(5-(1-((2-methoxyethyl)sulfonyl)piperidin-4-yl)-2-(((S)-pentan-2-yl)amino)-7H-pyrrolo[2,3-d]pyrimidin-7-yl)cyclohexan-1-ol], the IC50 on Mer tyrosine kinase is less than 10 nM; at Tyro3 tyrosine kinase, 100 to 1000 nM.
Turning to `CCC[C@H](C)Nc1ncc2c(C3CCN(C(=O)C4CCN(C)C4)CC3)cn([C@H]3CC[C@H](O)CC3)c2n1` (stereo partly drawn) [compound 18, (4-(7-((1R,4S)-4-hydroxycyclohexyl)-2-(((S)-pentan-2-yl)amino)-7H-pyrrolo[2,3-d]pyrimidin-5-yl)piperidin-1-yl)(1-methylpyrrolidin-3-yl)methanone], the values for the concentration for half-maximal inhibition (IC50) against Mer tyrosine kinase and at Tyro3 tyrosine kinase were less than 10 nM and 10 to 100 nM, respectively.
On to `CCC[C@H](C)Nc1ncc2c(C3CCN(C(=O)C4CNC4)CC3)cn([C@H]3CC[C@H](O)CC3)c2n1` [compound 13, Azetidin-3-yl(4-(7-((1R,4S)-4-hydroxycyclohexyl)-2-(((S)-pentan-2-yl)amino)-7H-pyrrolo[2,3-d]pyrimidin-5-yl)piperidin-1-yl)methanone], for which the IC50 against Mer tyrosine kinase was less than 10 nM; against Tyro3 tyrosine kinase, 10 to 100 nM.
For `CCC[C@H](C)Nc1ncc2c(C3CCN(C(=O)[C@@H]4CCCCN4)CC3)cn([C@H]3CC[C@H](O)CC3)c2n1` [compound 19, (4-(7-((1R,4S)-4-hydroxycyclohexyl)-2-(((S)-pentan-2-yl)amino)-7H-pyrrolo[2,3-d]pyrimidin-5-yl)piperidin-1-yl)((S)-piperidin-2-yl)methanone], the concentration for half-maximal inhibition (IC50) on Mer tyrosine kinase is less than 10 nM; at Tyro3 tyrosine kinase, 10 to 100 nM.
`CCC[C@H](C)Nc1ncc2c(C3CCN(C(=O)c4cc(C)nc(C)c4)CC3)cn([C@H]3CC[C@H](N)CC3)c2n1` [compound 95, (4-(7-((1R,4S)-4-aminocyclohexyl)-2-(((S)-pentan-2-yl)amino)-7H-pyrrolo[2,3-d]pyrimidin-5-yl)piperidin-1-yl)(2,6-dimethylpyridin-4-yl)methanone]: the figures for the concentration for half-maximal inhibition (IC50) against Mer tyrosine kinase and against Tyro3 tyrosine kinase were less than 10 nM and 10 to 100 nM, respectively.
For `CCC[C@H](C)Nc1ncc2c(C3CCN(C(=O)c4ccc(NC)cc4)CC3)cn([C@H]3CC[C@H](O)CC3)c2n1` [compound 83, (4-(7-((1R,4S)-4-hydroxycyclohexyl)-2-(((S)-pentan-2-yl)amino)-7H-pyrrolo[2,3-d]pyrimidin-5-yl)piperidin-1-yl)(4-(methylamino)phenyl)methanone], the IC50 is less than 10 nM at Mer tyrosine kinase and 10 to 100 nM at Tyro3 tyrosine kinase.
The matching figures for `CCC[C@H](C)Nc1ncc2c(C3CCN(S(=O)(=O)C4CCNCC4)CC3)cn([C@H]3CC[C@H](O)CC3)c2n1` [compound 3, (1S,4R)-4-(2-(((S)-pentan-2-yl)amino)-5-(1-(piperidin-4-ylsulfonyl)piperidin-4-yl)-7H-pyrrolo[2,3-d]pyrimidin-7-yl)cyclohexan-1-ol]: less than 10 nM and 10 to 100 nM.
For the compound `CCC[C@H](C)Nc1ncc2c(C3CCN(C(=O)c4ccccc4)CC3)cn([C@H]3CC[C@H](O)CC3)c2n1` [compound 30, (4-(7-((1R,4S)-4-hydroxycyclohexyl)-2-(((S)-pentan-2-yl)amino)-7H-pyrrolo[2,3-d]pyrimidin-5-yl)piperidin-1-yl)(phenyl)methanone], the concentration for half-maximal inhibition (IC50) against Mer tyrosine kinase is less than 10 nM; at Tyro3 tyrosine kinase, 10 to 100 nM.
For `CCC[C@H](C)Nc1ncc2c(C3CCN(C(=O)C4CCN(CCF)CC4)CC3)cn([C@H]3CC[C@H](O)CC3)c2n1` [compound 36, (1-(2-fluoroethyl)piperidin-4-yl)(4-(7-((1R,4S)-4-hydroxycyclohexyl)-2-(((S)-pentan-2-yl)amino)-7H-pyrrolo[2,3-d]pyrimidin-5-yl)piperidin-1-yl)methanone], in that order: less than 10 nM and 10 to 100 nM.
With `CCC[C@H](C)Nc1ncc2c(C3CCN(C)C3)cn([C@H]3CC[C@H](O)CC3)c2n1` (stereo partly drawn) [compound 99, (1S,4R)-4-(5-(1-methylpyrrolidin-3-yl)-2-(((S)-pentan-2-yl)amino)-7H-pyrrolo[2,3-d]pyrimidin-7-yl)cyclohexan-1-ol], the 50% inhibitory concentration (IC50) on Mer tyrosine kinase was less than 10 nM; against Tyro3 tyrosine kinase, 100 to 1000 nM.
For `CCC[C@H](C)Nc1ncc2c(C3CCN(C(=O)[C@H]4CCCCN4)CC3)cn([C@H]3CC[C@H](O)CC3)c2n1` [compound 20, (4-(7-((1R,4S)-4-hydroxycyclohexyl)-2-(((S)-pentan-2-yl)amino)-7H-pyrrolo[2,3-d]pyrimidin-5-yl)piperidin-1-yl)((R)-piperidin-2-yl)methanone], in that order: less than 10 nM and 100 to 1000 nM.
As for `CCC[C@H](C)Nc1ncc2c(C3CCN(C(=O)c4cc(OC)cc(OC)c4)CC3)cn([C@H]3CC[C@H](O)CC3)c2n1` [compound 80, (3,5-dimethoxyphenyl)(4-(7-((1R,4S)-4-hydroxycyclohexyl)-2-(((S)-pentan-2-yl)amino)-7H-pyrrolo[2,3-d]pyrimidin-5-yl)piperidin-1-yl)methanone], the values for the IC50 on Mer tyrosine kinase and against Tyro3 tyrosine kinase were less than 10 nM and 100 to 1000 nM, respectively.
With `CCC[C@H](C)Nc1ncc2c(C3CCN(C(=O)c4ccccc4OC)CC3)cn([C@H]3CC[C@H](O)CC3)c2n1` [compound 33, (4-(7-((1R,4S)-4-hydroxycyclohexyl)-2-(((S)-pentan-2-yl)amino)-7H-pyrrolo[2,3-d]pyrimidin-5-yl)piperidin-1-yl)(2-methoxyphenyl)methanone], the 50% inhibitory concentration (IC50) was less than 10 nM against Mer tyrosine kinase and 100 to 1000 nM against Tyro3 tyrosine kinase.
The matching figures for `CCC[C@H](C)Nc1ncc2c(C3CCN(C(=O)c4cc(C)nc(C)c4)CC3)cn([C@H]3CC[C@H](CO)CC3)c2n1` [compound 86]: less than 10 nM and 10 to 100 nM.
Take `CCC[C@H](C)Nc1ncc2c(C3CCN(C4CCN(C)CC4)CC3)cn([C@H]3CC[C@H](O)CC3)c2n1` [compound 52, (1S,4R)-4-(5-(1′-methyl-[1,4′-bipiperidin]-4-yl)-2-(((S)-pentan-2-yl)amino)-7H-pyrrolo[2,3-d]pyrimidin-7-yl)cyclohexan-1-ol]: the values for the IC50 at Mer tyrosine kinase and against Tyro3 tyrosine kinase were less than 10 nM and 10 to 100 nM, respectively.
For `CCC[C@H](C)Nc1ncc2c(C3CCN(C(=O)C4CCCN4C)CC3)cn([C@H]3CC[C@H](O)CC3)c2n1` (stereo partly drawn) [compound 16, 7-((1R,4S)-4-hydroxycyclohexyl)-5-(1-(methylprolyl)piperidin-4-yl)-2-(((S)-pentan-2-yl)amino)-7H-pyrrolo[2,3-d]pyrimidine], in that order: less than 10 nM and 10 to 100 nM.
Regarding `CCC[C@H](C)Nc1ncc2c(C3CCN(C(=O)c4ncc[nH]4)CC3)cn([C@H]3CC[C@H](O)CC3)c2n1` [compound 62, (4-(7-((1r,4S)-4-hydroxycyclohexyl)-2-(((S)-pentan-2-yl)amino)-7H-pyrrolo[2,3-d]pyrimidin-5-yl)piperidin-1-yl)(1H-imidazol-2-yl)methanone], the IC50 at Mer tyrosine kinase was less than 10 nM; against Tyro3 tyrosine kinase, 100 to 1000 nM.
`Cc1cc(C(=O)N2CCC(c3cn([C@H]4CC[C@H](O)CC4)c4nc(N[C@@H](C)c5ccc(F)cc5)ncc34)CC2)cc(C)n1` [compound 75, (2,6-dimethylpyridin-4-yl)(4-(2-(((S)-1-(4-fluorophenyl)ethyl)amino)-7-((1R,4S)-4-hydroxycyclohexyl)-7H-pyrrolo[2,3-d]pyrimidin-5-yl)piperidin-1-yl)methanone]: the IC50 was less than 10 nM against Mer tyrosine kinase and 10 to 100 nM at Tyro3 tyrosine kinase.
For `CCC[C@H](C)Nc1ncc2c(C3CCN(C(=O)c4ccc(CNC)cc4)CC3)cn([C@H]3CC[C@H](O)CC3)c2n1` [compound 85, (4-(7-((1R,4S)-4-hydroxycyclohexyl)-2-(((S)-pentan-2-yl)amino)-7H-pyrrolo[2,3-d]pyrimidin-5-yl)piperidin-1-yl)(4-((methylamino)methyl)phenyl)methanone], the IC50 against Mer tyrosine kinase is less than 10 nM; on Tyro3 tyrosine kinase it was 10 to 100 nM.
Take `C[C@H](Nc1ncc2c(C3CCN(CC4CCCCC4)CC3)cn([C@H]3CC[C@H](O)CC3)c2n1)c1ccccc1` [compound 92, (1S,4R)-4-(5-(1-(cyclohexylmethyl)piperidin-4-yl)-2-(((S)-1-phenylethyl)amino)-7H-pyrrolo[2,3-d]pyrimidin-7-yl)cyclohexan-1-ol]: the IC50 at Mer tyrosine kinase was less than 10 nM; on Tyro3 tyrosine kinase, 100 to 1000 nM.
